In this assay the target is SMP #1 (Serratia marcescens, UniProt P23694, N428Q/P266L). In kind it is biochemical, S. marcescens NRRL B-23112.

The structures appear in SMILES notation. Read-outs that look alike come from different tables or passages of the source. Where a SMILES comes first, the peptide text is derived from it. [ ]: non-standard residue; d: D form. The star is where a group is joined. Sta = CC(C)C[C@H](N)[C@@H](O)CC(=O)O; Isovaleryl = CC(C)CC(=O)*

With `CC(C)C[C@H](NC(=O)[C@@H](O)[C@H](N)Cc1ccccc1)C(=O)O` [bestatin], the “inhibition of SMP #1 proteolytic activity” value (“inhibition” for short) (bestatin 80 μg/ml) was “not inhibited”. As for `CC(C)C[C@H](NC(=O)[C@@H](NC(=O)N[C@@H](Cc1ccccc1)C(=O)O)[C@@H]1CCN=C(N)N1)C(=O)N[C@H](C=O)Cc1ccccc1` [chymostatin], the “inhibition” value (chymostatin 50 μg/ml) is “not inhibited”. Consider `CC(=O)N[C@@H](CC(C)C)C(=O)N[C@@H](CC(C)C)C(=O)N[C@H](C=O)CCCNC(=N)N` [leupeptin], for which the “inhibition” value (leupeptin 4 μg/ml) is “not inhibited”. Take `CC(C)CC(=O)N[C@H](C(=O)N[C@H](C(=O)N[C@@H](CC(C)C)[C@@H](O)CC(=O)N[C@@H](C)C(=O)N[C@@H](CC(C)C)[C@@H](O)CC(=O)O)C(C)C)C(C)C` [pepstatin] (Isovaleryl-VV[Sta]A[Sta]-OH): the “inhibition” value (pepstatin 4 μg/ml) is reported as “not inhibited”. Consider `O=S(=O)(F)Cc1ccccc1` [phenylmethylsulfonyl fluoride], for which the “inhibition” value (phenylmethylsulfonyl fluoride 400 μ/ml) is on record as “not inhibited”. As for `CC(C)C[C@H](NP(=O)(O)O[C@@H]1O[C@@H](C)[C@H](O)[C@@H](O)[C@H]1O)C(=O)N[C@@H](Cc1c[nH]c2ccccc12)C(=O)O` [phosphoramidon], where the note is “phosphoramidon 660 μ/ml”, the “inhibition” value was “not inhibited”.

For the origin of these results see patent US20040185566A1, “Polypeptides toxic to nematodes and methods of use” (priority 2003, published 2004).
